Laboratory results as given in paper PMC5329948, “Caspase vinyl sulfone small molecule inhibitors prevent axonal degeneration in human neurons and reverse cognitive impairment in Caspase-6-overexpressing mice” (Molecular Neurodegeneration, 2017).

Legend:
mice = assay: One month treatment toxicity in mice (pathology report); assay type: in vivo, mouse; conditions: one month treatment (Additional file 1)
Experimental: Casp6 transgenic mouse model: All animal procedures followed the Canadian Council on Animal Care guidelines and were approved by the McGill Animal care committees. Sixteen to 20 month old C57BL/6 J mice were bred and aged in the pathogen-free Goodman Cancer Research Centre Mouse Transgenic Facility at McGill University. Mice were housed in a temperature-controlled room at 22 °C and were kept on a 12 h light/dark cycle. Food and water were available at libitum. Casp6 overexpressing mice (KI/Cre) express Casp6p20p10 under the CAG promoter (CMV immediate early enchancer/chicken β-actin promoter fusion) in the CA1 pyramidal cell layer of the hippocampus under the control of calmodulin kinase IIa (CAMKIIa)-regulated Cre expression.
Additional file 1: Pathology report. Contains pharmacokinetic and toxicological analysis of CD-1 mice treated with NWL-117 for 28 days every 3 days. (PDF 3742 kb) Additional file 2: Figures S1-S4. Contains additional information to complement Figs. 3, 4, and 6 of the manuscript. (PDF 463 kb)

mice hippocampi = assay: Hippocampal Casp6 substrates, synaptic and glial markers after treatment (western blot, immunohistochemistry); assay type: in vivo, mouse
From the text: Protein extracts from HCT116 cells and human primary neurons were subjected to western blotting analyses. The 10630 (1:10 000) and GN60622 (1:10 000) neoepitope antibodies against the p20 subunit of active Casp6 (Casp6p20) and α-tubulin cleaved by Casp6 (TubΔCasp6) were generated previously in our laboratory. The β-actin clone AC-15 (1:5 000, Sigma-Aldrich, Oakville, ON, CA), Casp6 (1:1 000), Synapsin (1:5 000), full-length α-tubulin (1:1 000, Cell Signalling Technology Inc., Danvers, MA, USA), GFAP (1:3 000, Dako, Burlington, ON, CA), synaptophysin (1:5 000, Sigma, Oakville, ON, CA), and PSD95 clone K28143 (1:5 000, UC Davis/NIH NeuroMab Facility) were purchased. All antibodies were diluted in 5% non-fat dry milk. Secondary anti-mouse (1:5 000, GE Healthcare Life Sciences, Baie D’Urfe, QC, CA) and anti-rabbit antibodies (1:5 000, Dako, Burlington, ON, CA) conjugated to horseradish peroxidase were used to detect immunoreactive proteins using ECL prime western blotting detection reagent (GE Healthcare Life Sciences, Baie D’Urfe, QC, CA) and Kodak BioMax MR film (Kodak, Rochester, NY, USA). Secondary anti-mouse conjugated to alkaline phosphatase (Jackson Immunoresearch Laboratories Inc., West Grove, PA) was developed with nitro-blue tetrazolium (Thermo Fisher Scientific, Waltham, MA, USA) and 5-bromo-4-chloro-3-indolylphosphate (Thermo Fisher Scientific, Waltham, MA, USA) for chromogenic detection of proteins. The western blots were scanned with an HP scanner and the images were not manipulated except to adjust the brightness/contrast and this was done simultaneously to the entire blot. Quantification was performed with the ImageJ software (NIH, Bethesda, MD, USA).
Only males were used and littermates from each genotype (wild type (WT)/WT, WT/Cre, & knock-in (KI/)Cre) were tested together. The experimenter was blind to genotype and treatment groups. Mice were administered 20 mg/kg NWL-117 or physiological saline (0.9% NaCl) by intraperitoneal injections two times 48 h apart. […] Blood brain barrier permeability of NWL-117 caspase inhibitor: Briefly, 18–22 month old Casp6 mice were anesthetised with isoflurane, warmed with a heating blanket, and their physiological vitals (heart rate, body temperature, and respiration) monitored. The skin over the mouse’s neck was shaved, xylocaine applied, and an incision was made along the midline. Under a surgical microscope, the right carotid artery was gently separated from surrounding tissue. Two suture threads were placed at the proximal and distal ends of the carotid, and a small incision was made along the carotid wall. A micro-catheter (attached to a 1 ml syringe controlled by a micropump) was inserted and pushed to the entrance of the internal carotid artery. The catheter was secured in place using suture thread. NWL-117 (20 mg/kg) was infused via the micro-catheter using a pump set at 50 μL/min (total volume between 64 μL and 130 μL). After 5 min, blood was collected by intra-cardiac puncture, the mouse was perfused through the heart with ice cold saline for 2–3 min. The brain was removed and hippocampi were dissected and frozen on dry ice and stored. Samples were sent to the Biopharmacy platform at the University of Montreal (Quebec, Canada) for liquid chromatography and tandem mass spectrometry analysis. The integrity of the blood-brain barrier was confirmed by injecting 3% Evan’s blue solution in 20 month old Casp6 mice. […]

With `CCC(C)[C@H](NC(=O)[C@H](CCC(=O)O)NC(=O)[C@@H](NC(=O)OCc1ccccc1)C(C)C)C(=O)N[C@H](/C=C/S(C)(=O)=O)CC(=O)O` (stereo partly drawn) [NWL-117] the “toxicity after one month treatment” value (mice) was “No obvious toxicity”, the “Synapsin, synaptophysin and PSD95 hippocampal protein levels” value (mice hippocampi; 20 mg/kg i.p.) was “unchanged” and the “TubΔCasp6 immunostaining, CA1, KI/Cre mice” value (mice hippocampi; 20 mg/kg i.p.) was “increased non-significantly”. The “TubΔCasp6 immunostaining, CA1, control mice” value (mice hippocampi; 20 mg/kg i.p.) was “non-significantly decreased TubΔCasp6 levels threefold”, the GFAP levels (mice hippocampi; KI/Cre mice hippocampal extracts) was “did not change” and the “p97 cleaved by Casp6 (Δp97)” value (mice hippocampi; KI/Cre mice, versus saline) was “not different”.
